Data: ChEMBL document CHEMBL4616670, “Phosphine Oxides from a Medicinal Chemist's Perspective: Physicochemical and in Vitro Parameters Relevant for Drug Discovery” (J Med Chem, 2020)
Values after ≈ are worked out from the molar mass of the structure shown.

Tests used:
[1] = 168 h
Description: Chemical stability of the compound in MeOH/NH3 solution at pH >10 assessed as compound decomposition measured after 7 days by UV-RP-HPLC analysis

[2] = in vitro; conditions: human, liver microsomes
Description: Stability in human liver microsomes at 1 uM incubated prior to NADPH addition by LC-MS/MS analysis relative to hepatic blood flow

[3] = in vitro; conditions: human, Caco-2
Description: Permeability across apical to basolateral side in human Caco2 cells measured up to 2 hrs by LC-MS/MS analysis or scintillation counting method

[4] = in vitro; conditions: human, Caco-2; remark: listed apart in the source
Description: Efflux ratio of permeability in human Caco2 cells measured up to 2 hrs by LC-MS/MS analysis or scintillation counting method

[5] = physchem; conditions: octanol/water, pH 11
Description: Octanol/water partition coefficient, log D of the compound at pH 11

[6] = physchem; conditions: pH 6.8 buffer
[7] = physchem; conditions: MeOH/HCl solution
Description: Chemical stability of the compound in MeOH/HCl solution at pH <1 assessed as compound decomposition measured after 7 days by UV-RP-HPLC analysis

[8] = in vitro; conditions: human, liver microsomes; remark: listed apart in the source
Description: Half life in human liver microsomes at 1 uM incubated prior to NADPH addition by LC-MS/MS analysis

[9] = physchem; conditions: pH 6.8 buffer; remark: listed apart in the source
[10] = physchem; conditions: octanol/water, pH 2
Description: Octanol/water partition coefficient, log D of the compound at pH 2

[11] = Basic dissociation constant, pKb of the compound by UV absorption spectra analysis or potentiometric titration technique; type: physicochemical

Compound	Drug degradation [1] [%]	hepatic extraction ratio at 1 µM [2]	Papp A→B at 2 h [3] [×10⁻⁶ cm/s]	efflux ratio at 2 h [4]	logD [5]	solubility thermodynamic at 24 h [6] [µg/mL]	degraded at 168 h [7] [%]	half-life at 1 µM [8] [min]	solubility thermodynamic at 24 h [9] [µg/mL]	logD [10]	pKb [11]
O=P1(c2ccc(C(F)(F)F)cc2)CCCCC1	< 10	< 0.23	49	1.1	2	7700 (≈ 29400 µM)	< 10	> 130	> 66	2.4	–
CN1CCP(=O)(c2ccc(C(F)(F)F)cc2)CC1	< 10	< 0.23	52	0.7	0.9	> 30000	< 10	> 130	> 66	0	6.3
CN=S(=O)(c1ccc(C(F)(F)F)cc1)N(C)C (stereo unspecified)	–	–	70	0.8	2.9	1200 (≈ 4510 µM)	–	–	49 (≈ 184 µM)	2.2	–
CCOP(C)(=O)c1ccncc1 (stereo unspecified)	–	< 0.23	54	0.6	-0.7	> 30000	–	> 130	> 45	-1.1	–
CCOP(C)(=O)c1ccc(C(F)(F)F)cc1 (stereo unspecified)	–	< 0.23	69	1	2.3	–	–	> 130	–	2.5	–
CCOC(=O)c1ccc(C(=O)Nc2ccc(C)c(Nc3nccc(-c4cccnc4)n3)c2)cc1	–	> 0.88	–	–	3.5	–	–	< 5	< 1	1.9	–
O=P1(c2ccc(C(F)(F)F)cc2)CCCC1	< 10	< 0.23	69	0.7	1.7	24500 (≈ 98700 µM)	< 10	> 130	> 59	2	–
CNC(=O)c1ccc(C(F)(F)F)cc1	–	–	56	0.9	1.6	200 (≈ 984 µM)	–	–	> 51	1.9	–
CC(C)(C)NC(=O)c1ccc(C(F)(F)F)cc1	–	–	56	0.7	3.7	10 (≈ 40.8 µM)	–	–	14 (≈ 57.1 µM)	3.8	–
CCOP(C)(=O)c1ccc(C(=O)Nc2ccc(C)c(Nc3nccc(-c4cccnc4)n3)c2)cc1 (stereo unspecified)	–	0.45	5	9.9	2.2	–	–	48	51 (≈ 105 µM)	0.9	–
O=P1(c2ccc(C(F)(F)F)cc2)CCC1	< 10	< 0.23	78	0.8	1.6	24500 (≈ 105000 µM)	< 10	> 130	> 53	1.8	–
CC(C)OP(=O)(OC(C)C)c1ccc(C(F)(F)F)cc1	< 10	< 0.23	84	0.5	4.2	400 (≈ 1290 µM)	< 10	> 130	29 (≈ 93.5 µM)	4.3	–
CN=S(C)(=O)c1ccc(C(F)(F)F)cc1 (stereo unspecified)	–	–	67	1	1.7	2400 (≈ 10100 µM)	–	–	> 54	0.7	–
CCP(=O)(CC)c1ccc(C(F)(F)F)cc1	< 10	< 0.23	88	0.7	2	22500 (≈ 89900 µM)	< 10	> 130	> 60	2.3	–
O=P1(c2ccc(C(F)(F)F)cc2)CCOCC1	< 10	< 0.23	65	0.7	1.1	> 30000	< 10	> 130	> 65	1.4	–
CNS(=O)(=O)c1ccc(C(F)(F)F)cc1	–	–	36	0.9	–	900 (≈ 3760 µM)	–	–	> 49	–	–
COC(=O)c1ccc(C(F)(F)F)cc1	–	–	–	–	–	20 (≈ 98 µM)	–	–	< 1	–	–
CN(C)S(=O)(=O)c1ccc(C(F)(F)F)cc1	–	–	–	–	–	90 (≈ 355 µM)	–	–	47 (≈ 186 µM)	3.4	–

Compound	Drug degradation [1] [%]	hepatic extraction ratio at 1 µM [2]	Papp A→B at 2 h [3] [×10⁻⁶ cm/s]	efflux ratio at 2 h [4]	logD [5]	solubility thermodynamic at 24 h [6] [µg/mL]	degraded at 168 h [7] [%]	half-life at 1 µM [8] [min]	solubility thermodynamic at 24 h [9] [µg/mL]	logD [10]	pKb [11]
CC(C)(C)OC(=O)c1ccc(C(F)(F)F)cc1	–	–	–	–	–	20 (≈ 81.2 µM)	–	–	7 (≈ 28.4 µM)	–	–
CCOP(=O)(OCC)c1ccc(C(F)(F)F)cc1	< 10	< 0.23	95	0.6	3.2	1300 (≈ 4610 µM)	< 10	> 130	> 61	3.4	–
CC(C)P(=O)(c1ccc(C(F)(F)F)cc1)C(C)C	< 10	< 0.23	110	0.5	2.8	22200 (≈ 79800 µM)	< 10	> 130	> 61	3.1	–
Cc1ccc(NC(=O)c2ccc(C(N)=O)cc2)cc1Nc1nccc(-c2cccnc2)n1	–	0.25	3	8.1	1.5	–	–	117	< 1	0.4	–
CP(C)(=O)c1ccc(C(F)(F)F)cc1	< 10	< 0.23	82	0.5	1.1	> 30000	< 10	> 130	> 52	1.5	–
NS(=O)(=O)c1ccc(C(F)(F)F)cc1	–	–	83	0.6	–	800 (≈ 3550 µM)	–	–	> 48	–	–
CCP(=O)(CC)c1ccncc1	–	< 0.23	19	0.6	-1	11600 (≈ 63300 µM)	–	> 130	> 46	< -1.8	–
CNS(=N)(=O)c1ccc(C(F)(F)F)cc1 (stereo unspecified)	–	–	70	0.9	1	6900 (≈ 29000 µM)	–	–	> 54	0.8	2.4
CS(=O)(=O)c1ccc(C(F)(F)F)cc1	–	–	–	–	–	300 (≈ 1340 µM)	–	–	> 47	–	–
COP(=O)(OC)c1ccc(C(F)(F)F)cc1	< 10	< 0.23	85	0.5	2.2	10100 (≈ 39700 µM)	< 10	> 130	50 (≈ 197 µM)	2.5	–
CCOP(=O)(OCC)c1ccncc1	–	< 0.23	66	0.7	0.2	29500 (≈ 137000 µM)	–	> 130	> 50	0	–
CS(=N)(=O)c1ccc(C(F)(F)F)cc1 (stereo unspecified)	–	–	88	0.7	0.9	9100 (≈ 40800 µM)	–	–	> 50	0.8	2.5
CN=S(=O)(NC)c1ccc(C(F)(F)F)cc1 (stereo unspecified)	–	–	81	0.5	1.8	1200 (≈ 4760 µM)	–	–	> 57	0.7	–
O=S1(c2ccc(C(F)(F)F)cc2)=NCCCC1 (stereo unspecified)	–	–	84	0.7	1.8	4700 (≈ 17900 µM)	–	–	> 59	0.1	3.8
Cc1ccc(NC(=O)c2ccc(C(=O)N(C)C)cc2)cc1Nc1nccc(-c2cccnc2)n1	–	0.37	19	2.2	2	–	–	67	< 1	0.7	–
CNC(=O)c1ccc(C(=O)Nc2ccc(C)c(Nc3nccc(-c4cccnc4)n3)c2)cc1	–	< 0.23	8	4.9	1.7	–	–	> 130	< 1	0.5	–
NC(=O)c1ccc(C(F)(F)F)cc1	–	–	68	1	–	300 (≈ 1590 µM)	–	–	> 44	1.5	–
C[S+]([O-])c1ccc(C(F)(F)F)cc1 (stereo unspecified)	–	–	–	–	1.4	11100 (≈ 53300 µM)	–	–	> 46	1.7	–
